Measured values published in patent publication US8772481B2, “Aza- and diaza-phthalazine compounds as P38 map kinase modulators and methods of use thereof” (Amgen Inc., priority 2008, dated 2014).

Experiments:
[1] = test system: TNF-α induced IL-8 in human whole blood; experiment: Inhibition of TNF-α induced IL-8 in 50% human whole blood; assay type: cell-based; details: 1 nM TNF-α, secreted IL-8, read-out: WB TNF/IL8 IC50
Procedure: Inhibition of TNF-α Induced IL-8 in 50% Human Whole Blood
Test compounds were evaluated in vitro for the ability to inhibit the production of secreted IL-8 by whole blood activated with TNF-α. Fresh human whole blood was obtained from healthy, non-medicated volunteers in sodium heparin tubes.
Compound Dilution—Assay Procedure
Test compounds are serially diluted 1:3 in DMSO and then diluted 1:250 into R10 (RPMI 1640, 10% human serum AB, 1× pen/strep/glutamine) to the 4× working concentration to be used in the assay. 100 ul heparinized whole blood is plated into wells of 96 well flat bottom plates. 50 ul of either 4× compound or DMSO control (Final DMSO concentration is 0.1%) are added to the appropriate wells. Plates are incubated for 1 hour at 37 degrees Celsius. 50 ul of 4×TNF-α (4 nM TNF-α, for a final concentration of 1 nM) or control (media alone) is added to the appropriate wells (Total volume=200 ul). Plates are incubated overnight (16-18 hours). 100 ul of supernatant is collected and stored in 96-well round bottom polypropylene plates at −80 degrees Celsius or assayed immediately for IL-8.
Cytokines are measured on antibody (Ab) sandwich ECL based 96-well detection plates. 20 ul of supernatant are added to plate and plate is sealed and shaken at RT for 1 hour. 130 ul of detection Ab cocktail is added and plates are sealed and shaken for 1 hour in the dark at RT. Plates are read on MSD Sector HTS instrument. Data are analyzed and IC50 values generated using Activity Base and Xl-fit programs.

human p38α = human p38α (Homo sapiens (Human), UniProt Q16539); experiment: Purified and activated recombinant human p38α HTRF assay; assay type: biochemical; details: 50 μM ATP, read-out: p38a IC50
Sequence of human p38α (Q16539 whole entry): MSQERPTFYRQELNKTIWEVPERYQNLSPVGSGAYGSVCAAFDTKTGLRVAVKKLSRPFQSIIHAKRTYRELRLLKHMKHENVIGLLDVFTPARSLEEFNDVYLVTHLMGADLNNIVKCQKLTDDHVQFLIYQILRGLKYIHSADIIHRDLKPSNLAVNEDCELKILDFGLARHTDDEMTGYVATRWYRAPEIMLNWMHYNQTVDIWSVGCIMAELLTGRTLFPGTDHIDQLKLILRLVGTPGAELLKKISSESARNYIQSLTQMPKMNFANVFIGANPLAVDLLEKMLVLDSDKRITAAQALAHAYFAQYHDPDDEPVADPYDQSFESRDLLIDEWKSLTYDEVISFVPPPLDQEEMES
Procedure: Purified and Activated Recombinant Human p38α Assay
Kinase reaction buffer for p38α HTRF assays consists of 50 mM Tris-pH 7.5, 5 mM MgCl2, 0.1 mg/mL BSA, 100 μM Na3VO4 and 0.5 mM DTT.
HTRF detection buffer contains 100 mM HEPES-pH 7.5, 100 mM NaCl, 0.1% BSA, 0.05% Tween-20, and 10 mM EDTA.
Serial Dilution of Compounds:
Compounds were dissolved in 100% DMSO and serially diluted (3 fold, 10 point) in a polypropylene 96-well microtiter plate (drug plate). The final starting concentration of compounds in the p38α enzymatic assays was 1 μM. Columns 6 and 12 (HI controls and LO controls respectively) in the drug plate were reserved as controls and contained only DMSO.
The p38α kinase reactions were carried out in a polypropylene 96-well black round bottom assay plate in total volume of 30 μL kinase reaction buffer. Appropriate concentration of purified and activated enzyme (recombinant human) was mixed with indicated concentration of ATP and 100 nM GST-ATF2-Avitag, in the presence or absence (HI control) of Compound. See table below for actual concentrations. In the absence of substrate, the background was measured as LO control. The reaction was allowed to incubate for 1 hour at RT.
Assay Reagent Concentrations:
The final reagent concentrations were 1 nM p38α and 50 μM ATP.
After 60 minutes incubation at room temperature, the assay plate was read in a Discovery Plate Reader. The wells were excited with coherent 320 nm light and the ratio of delayed ([…] post excitation) emissions at […] (native europium fluorescence) and 665 nm (europium fluorescence transferred to allophycocyanin—an index of substrate phosphorylation) was determined (Park et al, 1999).
The proportion of substrate phosphorylated in the kinase reaction in the presence of compound compared with that phosphorylated in the presence of DMSO vehicle alone (HI control) was calculated using the formula: % control (POC)=(compound−average LO)/(average HI−average LO)*100. Data (consisting of POC and inhibitor concentration in μM) was fitted to a 4-parameter equation (y=A+((B−A)/(1+((x/C)^D))), where A is the minimum y (POC) value, B is the maximum y (POC), C is the x (compound concentration) at the point of inflection and D is the slope factor, using a Levenburg-Marquardt non-linear regression algorithm.
The inhibition constant (Ki) of the inhibitor was estimated from the IC50 (compound concentration at the point of inflection C) using the Cheng-Prussof equation: Ki=IC50/(1+S/Km), where S is the ATP substrate concentration, and Km is the Michaelis constant for ATP as determined experimentally. All results were expressed as the mean±the standard error of the mean. Data acquisition and non-linear regression algorithms were performed using Activity Base v5.2 and XL-fit software v4.1 respectively. All data was archived using Activity Base v5.2 software.

| IC50 [1] | IC50 (human p38α) | Compound |
| --- | --- | --- |
| 2.3 nM | 3.5 nM | Fc1ccc(Nc2ccc3c(-c4cn[nH]c4)nncc3n2)c(F)c1 [Example 13, N-(2,4-difluorophenyl)-5-(1H-pyrazol-4-yl)pyrido[2,3-d]pyridazin-2-amine] |
| 12 nM | 0.7 nM | Cc1cc(S(C)(=O)=O)ccc1-c1nncc2nc(Oc3ccc(F)cc3F)ccc12 [Example 17, 2-(2,4-difluorophenoxy)-5-(2-methyl-4-(methylsulfonyl)phenyl)pyrido[2,3-d]pyridazine] |
| 2.6 nM | 0.5 nM | Cc1cc(S(C)(=O)=O)ccc1-c1nncc2nc(Nc3ccc(F)cc3F)ccc12 [Example 7, N-(2,4-difluorophenyl)-5-(2-methyl-4-(methylsulfonyl)phenyl)pyrido[2,3-d]pyridazin-2-amine] |
| 7.6 nM | 4 nM | Fc1ccc(Nc2ccc3c(N4CCOCC4)nncc3n2)c(F)c1 [Example 3, N-(2,4-difluorophenyl)-5-(4-morpholinyl)pyrido[2,3-d]pyridazin-2-amine] |
| 43 nM | 6.5 nM | Cc1noc(C)c1-c1nncc2nc(Oc3ccc(F)cc3F)ccc12 [Example 21, 2-(2,4-difluorophenoxy)-5-(3,5-dimethyl-4-isoxazolyl)pyrido[2,3-d]pyridazine] |
| 1030 nM | 417 nM | Cc1cc(F)ccc1Oc1ccc2c(-c3cc(C(N)=O)ccc3C)nncc2n1 [Example 23, 3-(2-(4-fluoro-2-methylphenoxy)pyrido[2,3-d]pyridazin-5-yl)-4-methylbenzamide] |
| 3.1 nM | 1.2 nM | Cc1ccc(C(N)=O)cc1-c1nncc2nc(Oc3ccc(F)cc3)ccc12 [Example 20, 3-(2-(4-fluorophenoxy)pyrido[2,3-d]pyridazin-5-yl)-4-methylbenzamide] |
| 2.6 nM | 1.2 nM | Cc1ncccc1-c1nncc2nc(Nc3ccc(F)cc3F)ccc12 [Example 8, N-(2,4-difluorophenyl)-5-(2-methyl-3-pyridinyl)pyrido[2,3-d]pyridazin-2-amine] |
| 13 nM | 5.6 nM | Cn1cc(-c2nncc3nc(Nc4ccc(F)cc4F)ccc23)cn1 [Example 12, N-(2,4-difluorophenyl)-5-(1-methyl-1H-pyrazol-4-yl)pyrido[2,3-d]pyridazin-2-amine] |
| 79 nM | 45 nM | O=C(c1cccc(-c2nncc3nc(Nc4ccc(F)cc4F)ccc23)c1)N1CCOCC1 [Example 11, N-(2,4-difluorophenyl)-5-(3-(4-morpholinylcarbonyl)phenyl)pyrido[2,3-d]pyridazin-2-amine] |
| 1 nM | 0.3 nM | Cc1ccc(C(N)=O)cc1-c1nncc2nc(Oc3ccc(F)cc3F)ccc12 [Example 5, 3-(2-(2,4-difluorophenoxy)pyrido[2,3-d]pyridazin-5-yl)-4-methylbenzamide] |

The next lines start with the compound.

| Compound | IC50 [1] | IC50 (human p38α) |
| --- | --- | --- |
| Cc1ccccc1-c1nncc2nc(Nc3ccc(F)cc3F)ccc12 [Example 6, N-(2,4-difluorophenyl)-5-(2-methylphenyl)pyrido[2,3-d]pyridazin-2-amine] | 1.1 nM | 0.5 nM |
| Cc1ccccc1-c1nncc2nc(Oc3ccc(F)cc3)ccc12 [Example 19, 2-(4-fluorophenoxy)-5-(2-methylphenyl)pyrido[2,3-d]pyridazine] | 5.9 nM | 0.9 nM |
| Cc1n[nH]cc1-c1nncc2nc(Nc3ccc(F)cc3F)ccc12 [Example 14, N-(2,4-difluorophenyl)-5-(3-methyl-1H-pyrazol-4-yl)pyrido[2,3-d]pyridazin-2-amine] | 2.7 nM | 1.1 nM |
| Cc1ccccc1-c1nncc2nc(Oc3ccc(F)cc3F)ccc12 [Example 16, 2-(2,4-difluorophenoxy)-5-(2-methylphenyl)pyrido[2,3-d]pyridazine] | 2.3 nM | 0.2 nM |
| N-(2,4-difluorophenyl)-5-(3,5-dimethyl-1H-pyrazol-4-yl)pyrido[2,3-d]pyridazin-2-amine [Example 2] | 1.8 nM | 1.6 nM |
| Fc1ccc(Oc2ccc3c(-c4cn[nH]c4)nncc3n2)c(F)c1 [Example 18, 2-(2,4-difluorophenoxy)-5-(1H-pyrazol-4-yl)pyrido[2,3-d]pyridazine] | 24 nM | 5.1 nM |
| Cc1noc(C)c1-c1nncc2nc(Nc3ccc(F)cc3F)ccc12 [Example 15, N-(2,4-difluorophenyl)-5-(3,5-dimethyl-4-isoxazolyl)pyrido[2,3-d]pyridazin-2-amine] | 10 nM | 7.1 nM |
| Fc1ccc(Nc2ccc3c(-c4ccc(F)cc4F)nncc3n2)c(F)c1 [Example 10, N,5-bis(2,4-difluorophenyl)pyrido[2,3-d]pyridazin-2-amine] | 2.1 nM | 0.3 nM |
| Cc1cc(S(C)(=O)=O)ccc1-c1nncc2nc(Nc3ccc(F)cc3)ccc12 [Example 9, N-(4-fluorophenyl)-5-(2-methyl-4-(methylsulfonyl)phenyl)pyrido[2,3-d]pyridazin-2-amine] | 9 nM | 0.9 nM |
| Cc1cc(F)ccc1Oc1ccc2c(-c3ccccc3C)nncc2n1 [Example 22, 2-(4-fluoro-2-methylphenoxy)-5-(2-methylphenyl)pyrido[2,3-d]pyridazine] | 620 nM | 168 nM |
